Laboratory results reported in US20240041708A1, “DEHYDRATED SOAP AND CLEANER TABLET COMPOSITION” (HAPPY GO LUCKY LLC, priority 2022, published 2024).
Entries after “also recorded” stand apart in the source; their conditions may differ.

Key:
[1] = system: Candida albicans; details: fungus Candida albicans; cited from earlier work
[2] = system: environmental microbes; assay: Rehydrated tablet stability testing (daily scent, clarity, particulates, pressure; pass/fail); details: as preservative in Comparative Examples 3 and 4
Source text: The key goals for the present invention, given that it is intended to be used for bottles that will be refilled many times to reduce plastic waste, are for the rehydrated formula to: • (a) be stable once rehydrated, meaning that the solution would no discernible microbial growth over a multi-month period of time and would maintain its physical characteristics, and • (b) work within an acceptable manufacturing process (both physically and in terms of cost).
In terms of physical characteristics measured, once the test tablets had been rehydrated, several observables were tracked each day such as scent, clarity, presence of particulates and pressure.
Scent was measured by comparing the scent each day to the original scent of an initially rehydrated bottle. When microbial activity is present it can create compounds, which add a distinctly unpleasant odor to the compositions. 2 Given the sensitivity of the human nose to such compounds, this would be a clear aesthetic failure for the product even if overall microbial growth remained below a level that could be harmful or otherwise impact use.
Regarding clarity, initially rehydrated solutions are completely transparent. […]
Once the initial dissolution process is complete, a rehydrated solution should contain no free-floating particulates. The appearance of any particles within the solution was recorded and visually evaluated. […]

[3] = system: bacteria; assay: Inhibitory effect of IPBC against bacteria tested; assay type: cell-based
Source text: (§1) In Examples 1 and 2, the concentration of IPBC was in the 100 ppm to 160 ppm range. This range inhibits the growth of all three categories of microbes. An amount of 100 ppm is a minimum safe amount to inhibit most types of microbial growth.

[4] = system: fungus and yeast; assay: Growth inhibition of fungus and yeast by IPBC; assay type: cell-based; details: 100 ppm to 160 ppm
Source text: as §1

[5] = system: mold/mildew/yeast/fungi; details: cited from earlier work
[6] = system: algae; details: cited from earlier work
[7] = at comparable concentrations; cited from earlier work

Row | Compound | MIC [1] | effectiveness in stability testing (preservation) [2] | concentration with inhibitory effect against most bacteria tested [3] [ppm] | inhibition of growth of fungus and yeast [4] | minimum inhibitory concentration (MIC) [5] [ppm] | minimum inhibitory concentration (MIC) [6] [ppm] | comedogenicity [7]
1 | O=C([O-])c1ccccc1.[Na+] [sodium benzoate, reference compound] | about 2500 ppm | – | – | – | – | – | –
2 | benzalkonium chloride [BKC] | – | somewhat effective; also recorded: better preservation than other non-IPBC-containing compositions tested | – | – | – | – | –
3 | iodopropynyl butylcarbamate [IPBC] | about 8 ppm | – | 100 | significantly inhibits | ≤ 10 | ≤ 50 | noncomedogenic
